From US20240173333A1, “Treating Alagille Syndrome (ALGS)” (priority 2022, published 2024)
≈ marks a conversion by molar mass, not a printed value. Entries after “also recorded” stand apart in the source; their conditions may differ. Marks after values point to notes of the source that are not given here.

Legend:
[1] = test system: patients with Alagille syndrome (ALGS); assay: ASSERT: fat-soluble vitamin levels, INR and related TEAEs; assay type: in vivo, human
Method: Vitamins A, D, E, and international normalized ratio (INR; surrogate for vitamin K) were measured throughout the study. Vitamins A, D, and E were measured at screening and randomization, week 12, and week 24. International normalized ratio (INR; surrogate for vitamin K) was measured at all visits. The following measures were determined: (i) percentage of patients with FSV insufficiency at baseline and week 24, and (ii) shifts from baseline to high or low post-baseline FSV values relative to normal ranges. Treatment-emergent adverse events (TEAEs) of FSV deficiency, TEAEs resulting from new or worsening FSV deficiency refractory to clinically recommended vitamin supplementation, and TEAEs represented any possible sequelae of FSV deficiency were evaluated.

[2] = test system: patients with Alagille syndrome (ALGS); assay: Pooled ASSERT and ASSERT-EXT: hepatic parameters (ALT, AST, GGT, total bilirubin); assay type: in vivo, human
Method: In the completed 24-week ASSERT study, patients with ALGS with history of significant pruritus and elevated serum BAs were randomized 2:1 to once-daily odevixibat 120 μg/kg or placebo, respectively. Patients who completed ASSERT could enter ASSERT-EXT, an ongoing, 72-week open-label extension study in which all patients receive odevixibat 120 μg/kg/day. This pooled analysis included all odevixibat-treated patients from ASSERT and/or ASSERT-EXT and spans from patients' first dose of odevixibat to a data cut-off of Sep. 9, 2022. Assessments over up to 36 weeks of treatment included change in observer-reported scratching scores and sleep parameters, as well as levels of serum BAs, autotaxin (a proposed meditator of pruritus), and 7 alpha-hydroxy-4-cholesten-3-one (C4; a marker of bile acid synthesis). Safety evaluations included assessment of alanine aminotransferase (ALT), total bilirubin, and treatment-emergent adverse events (TEAEs).
Patients who completed ASSERT could enter ASSERT-EXT, an ongoing 72-week extension study in which all patients received odevixibat 120 μg/kg/day. This pooled analysis spans from patients' first dose of odevixibat in ASSERT and/or ASSERT-EXT to a data cutoff at the end of the 72 week period; data from patients who received placebo in ASSERT are also presented for comparison. In both studies, laboratory assessments included measurement of serum alanine transaminase (ALT), Aspartate transaminase (AST), Gamma-glutamyltransferase (GGT), and total bilirubin levels. Caregivers rated patient pruritus using the PRUCISION™ instrument.

[3] = Solubility in water; assay type: physicochemical; settings: pH 7, 37° C.
Text: It is desirable that the use of organic solvents in the preparation of the formulation is avoided. In some embodiments, water is used as the solvent for the preparation of the formulation. […] Because of this low solubility in water, aqueous suspensions of odevixibat can contain larger agglomerates of odevixibat, which may lead to an uneven distribution of the active pharmaceutical ingredient on the cores, i.e., the cores may contain different amounts of odevixibat, which in turn impacts dose uniformity. Accordingly, in some embodiments, the aqueous suspension of odevixibat is homogeneous. In some embodiments, a homogeneous aqueous suspension of odevixibat is sprayed onto the cores.

[4] = test system: patients with Alagille syndrome (ALGS); assay: ASSERT: global impression of change (CGIC, CaGIC, PGIC) and exit survey; assay type: in vivo, human; settings: post hoc analysis; completion of study
[5] = test system: patients with Alagille syndrome (ALGS); assay: ASSERT pruritus responders: caregiver-reported PedsQL
Text: Treatment with concomitant medications for pruritus was permitted provided the patient was on a stable dosage for ≥4 weeks prior to enrollment that was maintained throughout the study.
Pruritus responders were defined as patients having a ≥1-point decrease in ObsRO scratching score from baseline to weeks 21-24).

CCCCC1(CCCC)CN(c2ccccc2)c2cc(SC)c(OCC(=O)N[C@@H](C(=O)N[C@@H](CC)C(=O)O)c3ccc(O)cc3)cc2S(=O)(=O)N1 [odevixibat, 1,1-dioxo-3,3-dibutyl-5-phenyl-7-methylthio-8-(N-{(R)-α-[N-((S)-1-carboxypropyl)carbamoyl]-4-hydroxybenzyl}carbamoylmethoxy)-2,3,4,5-tetrahydro-1,2,5-benzothiadiazepine]
shifts to low levels of vitamin E in patients with normal or high baseline levels ([1]; 4/29): 14%
shifts to low vitamin D levels in patients with normal or high baseline levels ([1]; 8/16): 50%
shifts from low or normal INR at baseline to high INR (low vitamin K) ([1]; 12/30): 40%
TEAE related to FSV levels: decreased vitamin A ([1]; 24 weeks): 1 n
TEAE related to FSV levels: decreased vitamin E ([1]; 24 weeks): 1 n
TEAE related to FSV levels: increased INR ([1]; 24 weeks): 1 n
incidence of INR increased (possible sequela of FSV deficiency) ([1]; 24 weeks): 3%
incidence of haematoma (possible sequela of FSV deficiency) ([1]; 24 weeks): 9%
patients shifted to high INR based on the normal range ([1]; 24 weeks): 12 patients
patients who shifted to high post-baseline INR and had TEAEs of potential sequelae of vitamin K deficiency ([1]; 24 weeks): 2 n
patients with clinically meaningful INR shifts (INR >1.2) ([1]; 24 weeks): 6 patients
shifts to low vitamin D levels ([1]; 24 weeks): 8 patients
shifts to low vitamin E levels ([1]; 24 weeks): 4 patients
incidence of possible sequelae of fat-soluble vitamin deficiency ([1]; 24 weeks, n=35): 14%
patients with TEAEs related to FSV levels (any FSV deficiency-related TEAE) ([1]; 24 weeks, n=35): 9%
fat-soluble vitamin deficiency TEAE refractory to clinically recommended vitamin supplementation ([1]; 24 weeks, vitamin D deficiency): 1 patients
changes from baseline in mean vitamin (FSV) levels or INR ([1]; baseline to last assessment): No clinically meaningful changes; also recorded: no clinically relevant changes
Vitamin A, shifts to low ([1]; baseline to lowest post-baseline value): 0/34
patients shifted to low levels of vitamin A ([1]; during the study): No patients
Any FSV deficiency-related TEAE ([1]; n=35): 3 (9)^a n (%)
Any potential sequelae events ([1]; n=35): 5 (14) n (%)
FSV deficiency-related TEAE: INR increased ([1]; n=35): 1 (3) n (%)
FSV deficiency-related TEAE: Vitamin A decreased ([1]; n=35): 1 (3) n (%)
FSV deficiency-related TEAE: Vitamin E decreased ([1]; n=35): 1 (3) n (%)
Potential sequelae: Coagulopathy ([1]; n=35): 1 (3) n (%)
Potential sequelae: Contusion ([1]; n=35): 1 (3) n (%)
Potential sequelae: Epistaxis ([1]; n=35): 0 n (%)
Potential sequelae: Hematemesis ([1]; n=35): 1 (3) n (%)
Potential sequelae: Hematoma ([1]; n=35): 3 (9) n (%)
Potential sequelae: INR increased ([1]; n=35): 1 (3) n (%)
FSV deficiency-related TEAE: Vitamin D deficiency ([1]; n=35, refractory to supplementation): 1 (3)^b n (%)
patients with FSV deficiency TEAE refractory to clinically recommended vitamin supplementation ([1]; of 35 patients): 3%
ALT, Mean (SD), Change to week 48 ([2]; n=9): 64 (102) U/L
AST, Mean (SD), Change to week 48 ([2]; n=9): 37 (72) U/L
GGT, Mean (SD), Change to week 48 ([2]; n=9): 2 (238) U/L
Total bilirubin, Mean (SD), Change to week 48 ([2]; n=9): −1 (16) μmol/L
ALT, Mean (SD), Change to week 36 ([2]; n=15): 79 (91) U/L
AST, Mean (SD), Change to week 36 ([2]; n=16): 67 (66) U/L
GGT, Mean (SD), Change to week 36 ([2]; n=16): 101 (149) U/L
Total bilirubin, Mean (SD), Change to week 36 ([2]; n=16): 10 (37) μmol/L
ALT, Mean (SD), Change to week 24 ([2]; n=37): 57 (81) U/L
AST, Mean (SD), Change to week 24 ([2]; n=37): 43 (89) U/L
GGT, Mean (SD), Change to week 24 ([2]; n=37): 107 (170) U/L
Total bilirubin, Mean (SD), Change to week 24 ([2]; n=37): −1 (19) μmol/L
AST, Mean (SD), Change to week 12 ([2]; n=42): 36 (67) U/L
ALT, Mean (SD), Change to week 12 ([2]; n=43): 63 (82) U/L
GGT, Mean (SD), Change to week 12 ([2]; n=44): 97 (178) U/L
Total bilirubin, Mean (SD), Change to week 12 ([2]; n=44): −3 (32) μmol/L
ALT, Mean (SD), Change to week 4 ([2]; n=46): 55 (71) U/L
AST, Mean (SD), Change to week 4 ([2]; n=46): 40 (67) U/L
GGT, Mean (SD), Change to week 4 ([2]; n=46): 79 (191) U/L
Total bilirubin, Mean (SD), Change to week 4 ([2]; n=46): −4 (19) μmol/L
ALT, Mean (SD), Baseline ([2]; n=52, before odevixibat): 173 (79) U/L
AST, Mean (SD), Baseline ([2]; n=52, before odevixibat): 164 (76) U/L
GGT, Mean (SD), Baseline ([2]; n=52, before odevixibat): 441 (329) U/L
Total bilirubin, Mean (SD), Baseline ([2]; n=52, before odevixibat): 56 (49) μmol/L
concurrent total bilirubin levels in the 4 patients with AST/ALT >3×BL ([2]; pooled): < 2 times the baseline level
patients with on-treatment elevations in ALT and total bilirubin that met Hy's law criteria ([2]; pooled): No patients
patients with potentially clinically significant elevations in AST and/or ALT to >3 times the baseline level ([2]; pooled, n=52): 4 patients
solubility [3]: ~30 µg/mL (≈ 40.5 µM)
caregivers reporting meaningful change in the patient since the start of treatment (exit survey) [4]: 78%
PedsQL total score, Baseline Mean (SE) ([5]; n=24, range 0-100): 68 (3)
PedsQL total score, Mean (SE) Change From Baseline ([5]; to week 24, n=23): 16 (4)^c
PedsQL total score, Week 24 Mean (SE) ([5]; week 24, n=25): 83 (2)
